Laboratory results reported in ChEMBL document CHEMBL1201862, “PubChem BioAssay data set” (2004).
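Interpolation was linear, between the two tested concentrations surrounding the appropriate level; five concentrations were tested over 48 hours in 96-well plates. GI50 is the concentration that inhibits growth by half.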 The source made the active and inactive calls. Cut-off read from the data, not from the text of the source: active = GI50 up to about 1.1 µM and inactive = higher.

How the values were obtained:
Test in all cases: NCI-60 cell line screen, 48 h
[1] = tested on: COLO 205
[2] = tested on: U-251
[3] = tested on: EKVX
[4] = tested on: CCRF-CEM
[5] = tested on: UO-31
[6] = tested on: Hs-578T
[7] = tested on: A498
[8] = tested on: OVCAR-8
[9] = tested on: SW-620
[10] = tested on: M14
[11] = tested on: UACC-257
[12] = tested on: UACC-62
[13] = tested on: NCI-H460
[14] = tested on: TK-10
[15] = tested on: NCI-H23
[16] = tested on: SF-295
[17] = tested on: NCI-H226
[18] = tested on: RPMI-8226
[19] = tested on: HT-29
[20] = tested on: SF-268
[21] = tested on: SF-539
[22] = tested on: T47D
[23] = tested on: HOP-92
[24] = tested on: OVCAR-5
[25] = tested on: HL-60
[26] = tested on: MDA-MB-435
[27] = tested on: SR
[28] = tested on: CAKI-1
[29] = tested on: SK-MEL-28
[30] = tested on: SK-MEL-5
[31] = tested on: 786-0
[32] = tested on: K562
[33] = tested on: MOLT-4
[34] = tested on: LOX IMVI
[35] = tested on: NCI-H522
[36] = tested on: A549
[37] = tested on: OVCAR-3
[38] = tested on: ACHN
[39] = tested on: IGROV-1
[40] = tested on: HCT-15
[41] = tested on: MDA-MB-231
[42] = tested on: BT-549
[43] = tested on: SNB-19
[44] = tested on: SK-MEL-2
[45] = tested on: Malme-3M
[46] = tested on: DU-145
[47] = tested on: MDA-N
[48] = tested on: SN12C
[49] = tested on: PC-3
[50] = tested on: SK-OV-3
[51] = tested on: HCT-116
[52] = tested on: OVCAR-4
[53] = tested on: RXF 393
[54] = tested on: NCI/ADR-RES
[55] = tested on: KM12
[56] = tested on: HOP-62
[57] = tested on: HCC 2998
[58] = tested on: SNB-75
[59] = tested on: MCF7

CC1(C)CC2=NC(SSC3=C(C#N)C(c4ccc(Br)cc4)C4=C(O)CC(C)(C)CC4=N3)=C(C#N)C(c3ccc(Br)cc3)C2=C(O)C1 (configuration not stated)
GI50 [1]: > 100 µM (inactive) | GI50 [2]: > 100 µM (inactive) | GI50 [3]: > 100 µM (inactive) | GI50 [4]: > 100 µM (inactive) | GI50 [5]: > 100 µM (inactive) | GI50 [6]: > 100 µM (inactive) | GI50 [7]: > 100 µM (inactive) | GI50 [8]: > 100 µM (inactive) | GI50 [9]: > 100 µM (inactive) | GI50 [10]: > 100 µM (inactive) | GI50 [11]: > 100 µM (inactive) | GI50 [12]: > 100 µM (inactive) | GI50 [13]: > 100 µM (inactive) | GI50 [14]: > 100 µM (inactive) | GI50 [15]: > 100 µM (inactive) | GI50 [16]: > 100 µM (inactive) | GI50 [17]: > 100 µM (inactive) | GI50 [18]: 67.8 µM (inactive) | GI50 [19]: > 100 µM (inactive) | GI50 [20]: > 100 µM (inactive) | GI50 [21]: > 100 µM (inactive) | GI50 [22]: > 100 µM (inactive) | GI50 [23]: 70.6 µM (inactive) | GI50 [24]: > 100 µM (inactive) | GI50 [25]: 46.6 µM (inactive) | GI50 [26]: > 100 µM (inactive) | GI50 [27]: 48.3 µM (inactive) | GI50 [28]: > 100 µM (inactive) | GI50 [29]: > 100 µM (inactive) | GI50 [30]: > 100 µM (inactive) | GI50 [31]: > 100 µM (inactive) | GI50 [32]: 75 µM (inactive) | GI50 [33]: 59 µM (inactive) | GI50 [34]: > 100 µM (inactive) | GI50 [35]: 57.7 µM (inactive) | GI50 [36]: > 100 µM (inactive) | GI50 [37]: > 100 µM (inactive) | GI50 [38]: > 100 µM (inactive) | GI50 [39]: > 100 µM (inactive) | GI50 [40]: > 100 µM | GI50 [41]: > 100 µM (inactive) | GI50 [42]: > 100 µM (inactive) | GI50 [43]: > 100 µM (inactive) | GI50 [44]: > 100 µM (inactive) | GI50 [45]: > 100 µM (inactive) | GI50 [46]: > 100 µM (inactive) | GI50 [47]: > 100 µM (inactive) | GI50 [48]: > 100 µM (inactive) | GI50 [49]: > 100 µM (inactive) | GI50 [50]: > 100 µM (inactive) | GI50 [51]: > 100 µM (inactive) | GI50 [52]: > 100 µM (inactive) | GI50 [53]: > 100 µM (inactive) | GI50 [54]: > 100 µM (inactive) | GI50 [55]: > 100 µM (inactive) | GI50 [56]: > 100 µM (inactive)

COC(=O)C1=COC2OC3C(C(C)O)C(=O)OC34C=CC1C24 (configuration not stated)
GI50 [1]: 40.6 µM (inactive) | GI50 [2]: 60 µM (inactive) | GI50 [3]: 81.7 µM (inactive) | GI50 [4]: 14.9 µM (inactive) | GI50 [5]: 74.6 µM (inactive) | GI50 [6]: 34 µM (inactive) | GI50 [7]: 98.6 µM (inactive) | GI50 [8]: 20.9 µM (inactive) | GI50 [9]: 29.4 µM (inactive) | GI50 [10]: 55.6 µM (inactive) | GI50 [11]: > 100 µM (inactive) | GI50 [12]: 29.3 µM (inactive) | GI50 [13]: 49.2 µM (inactive) | GI50 [14]: 61.2 µM (inactive) | GI50 [15]: 80.9 µM (inactive) | GI50 [16]: 56.6 µM (inactive) | GI50 [17]: > 100 µM (inactive) | GI50 [18]: 29.1 µM (inactive) | GI50 [57]: > 100 µM (inactive) | GI50 [19]: 44 µM (inactive) | GI50 [20]: 49 µM (inactive) | GI50 [21]: 30.1 µM (inactive) | GI50 [22]: 39.4 µM (inactive) | GI50 [23]: 55.7 µM (inactive) | GI50 [24]: 51.9 µM (inactive) | GI50 [25]: 15.5 µM (inactive) | GI50 [26]: 31.6 µM (inactive) | GI50 [28]: 55 µM (inactive) | GI50 [29]: 31 µM (inactive) | GI50 [30]: 57 µM (inactive) | GI50 [31]: 53.8 µM (inactive) | GI50 [32]: 32.2 µM (inactive) | GI50 [33]: 24.3 µM (inactive) | GI50 [34]: 47.3 µM (inactive) | GI50 [58]: 35.8 µM (inactive) | GI50 [35]: 14.8 µM (inactive) | GI50 [36]: > 100 µM (inactive) | GI50 [37]: 29.5 µM (inactive) | GI50 [59]: 40.1 µM (inactive) | GI50 [38]: 44.7 µM (inactive) | GI50 [39]: 71.6 µM (inactive) | GI50 [40]: 31.9 µM | GI50 [41]: > 100 µM (inactive) | GI50 [42]: 40.4 µM (inactive) | GI50 [43]: 51.5 µM (inactive) | GI50 [44]: 31 µM (inactive) | GI50 [45]: 36.6 µM (inactive) | GI50 [46]: 57.1 µM (inactive) | GI50 [47]: 29.6 µM (inactive) | GI50 [48]: 50.1 µM (inactive) | GI50 [49]: 85.5 µM (inactive) | GI50 [50]: 59.7 µM (inactive) | GI50 [51]: 47.5 µM (inactive) | GI50 [52]: > 100 µM (inactive) | GI50 [54]: 25 µM (inactive) | GI50 [55]: 37.2 µM (inactive)
